Assay [1] has as its system TNFα. Nature of the assay: TNFα ELISA of tumor lysates from orthotopic MDA-MB-231 xenografts after a single oral dose. The assay is classed as in vivo, mice. The conditions noted are these: 39 days after tumor cell implantation, mean tumor volume approximately 141 mm3. On the procedure: To assess whether the induction of TNFα observed in the MDA-MB-231 breast tumor cell line translated to an in vivo setting, an experiment is performed in mice harboring orthotopically implanted MBA-MD-231 tumors.
A single oral dose of Compound A is administered 39 days following tumor cell implantation when mean tumor volumes reached approximately 141 mm3. Tumors are harvested from each animal, lysed, and analyzed by ELISA to determine TNFα concentrations.

Assay [2] has as its system TNFα. In words: Secreted TNFα ELISA in a panel of cancer cell lines before and 24 hours after compound addition. In kind it is cell-based, Human. The conditions noted are these: sensitive vs insensitive cancer cell lines (3-day viability assays, up to 10 uM). On the procedure: To test whether the engagement of the TNFα signaling pathway is requisite for single agent activity in vitro, a panel of cancer cell lines is evaluated for sensitivity to Compound A while in parallel, secreted TNFα expression levels are assessed by ELISA before and 24 hours after compound addition. […] Increased basal TNFα levels also positively correlate with sensitivity to Compound A (FIG. 8).
(§1) On day one, cancer cells are plated into two 96-well, clear, flat bottom plates. All wells in row A contain 200 uL of media. All wells in rows B-G contain 5000 cells per well in 180 ul of RPMI media with 10% FBS. Plates are then incubated overnight for 18 hours at 37 C, 5% CO2. […] TNFα levels in the media are measured using the R&D Quantikine Human TNFα High Sensitivity ELISA assay, catalog number HSTA00D. […] The colorimetric readout is measured on a spectrometer at 490nM within 30 minutes of adding the stop solution. Raw data is normalized to account for background noise, duplicate values are averaged and concentrations are calculated from a standard curve (FIG. 8). […] CTG measures the amount of ATP released from viable cells that can be measured by a luminescent plate reader. Cells with CTG are incubated for ten minutes at room temperature and read on a luminescent plate reader. Raw data is normalized to account for background noise, duplicate values are averaged and percent control growth is calculated.
(In an ELISA, binding on a coated surface is turned into a signal by an enzyme label.)

The subject of assay [3] is TNFα. In words: TNFα ELISA in SK-OV-3 cells with shRNA knockdown of NFkB pathway nodes. In kind it is cell-based, Human. On the procedure: To elucidate this mechanism, nodes of the canonical and non-canonical NFkB pathways and are knocked down and induction of TNFα expression, a marker of NFkB activation, after treatment with the Smac mimetic compound Compound A, is assessed. […] Therefore, tumors with active or functional canonical NFkB signaling, as evidenced by TNFα expression or other markers of active NFkB signaling, are more likely to respond to Compound A.
as §1, with “one, SKOV” for “one,”, “10% FBS and 1 ug/mL of puromycin.” for “10% FBS.”, “Human TNFalpha” for “Human TNFα”, “at 490 nM” for “at 490nM”, “(FIG. 9).” for “(FIG. 8).”, “reader. […]” for “reader. Raw data is normalized to account for background noise, duplicate values are averaged and percent control growth is calculated.”

Assay [4] has as its system MDA-MB-231 breast cancer cell line. Nature of the assay: In vitro induction of TNFα, caspase activation and cell death in tumor cell lines. The conditions noted are these: in vitro assays, variety of tumor cell lines including MDA-MB-231. The assay is classed as cell-based.
For assay [5], the system named is patient-derived tumor models representing both triple negative breast cancer and Non Small Cell Lung Carcinoma (NSCLC). Nature of the assay: Single agent tumor growth inhibition (% T/C) in patient-derived xenograft models. In kind it is in vivo, nude mice. Conditions: 18 patient-derived tumor models. From the text: Patient-derived xenograft models in which human tumors are surgically resected then directly implanted and subsequently passaged in nude mice are potentially more clinically relevant than cell line models since there is no selective pressure for two dimensional growth on a plastic stratum.
Compound A has been tested for single agent activity in 18 patient-derived tumor models representing both triple negative breast cancer and Non Small Cell Lung Carcinoma (NSCLC) models. Tumor growth inhibition by Compound A is reported as % T/C (percent growth of tumors in mice treated with Compound A relative to the growth of tumors in Control vehicle treated mice). Complete regression of a tumor would be reported as −100% T/C, tumor stasis (no growth) would be reported as 0% T/C, and no effect would be reported as 100% T/C. […] Stasis (T/C≦40%) has been observed in 25% of primary models assessed.

`CN[C@@H](C)C(=O)N[C@H](C(=O)N1CCC[C@H]1c1nc(C(=O)c2ccc(F)cc2)cs1)C1CCCCC1` [Compound A, (S)—N—((S)-1-Cyclohexyl-2-{(S)-2-[4-(4-fluoro-benzoyl)-thiazol-2-yl]-pyrrolidin-1-yl}-2-oxo-ethyl)-2-methylamino-propionamide]: the “increase in TNFα in MDA-MB-231 tumor lysates” value with TNFα [1] was approximately 10 fold. Besides, the “induction of secreted TNFα” value in the assay with TNFα [2] is “induced TNF-alpha in sensitive but not insensitive cancer cell lines”. In addition, the “Compound A-mediated induction of TNFα after knockdown of RelB” value with TNFα [3] (SK-OV-3, shRNA-mediated knockdown of RelB (non-canonical NFkB pathway)) was “does not impact”. The “Compound A-mediated TNF induction after knockdown of RelA” value with TNFα [3] (SK-OV-3 ovarian carcinoma cell line, shRNA-mediated knockdown of RelA (canonical NFkB pathway)) is “ablated TNF induction”. Moreover, in assay [4], the “induction of TNFα, activation of caspases and subsequent cell death” value was “induces the induction of TNFα, activation of caspases and subsequent cell death”. In assay [5], the “range of responses (% T/C)” value is recorded as “from tumor regression to no effect” and the “share of primary models in which stasis (T/C≦40%) was observed” value was found to be 25%.

The record behind these values is patent US20120196793A1, “BIOMARKERS FOR IAP INHIBITOR COMPOUNDS” (priority 2009, published 2012).
